From patent publication US10604580B2, “Combination therapies with anti-CD38 antibodies” (Janssen Biotech, Inc., priority 2014, dated 2020)

Columns and labels:
[1] = system: luciferase-transduced XG1 multiple myeloma cells; assay: Humanized multiple myeloma mouse model, tumor growth by BLI; type: in vivo, RAG2−/−γc−/− mice; conditions: for tumor progression (BLI): single agent plus PBMC-T, daratumumab 8 mg/kg i.p., ATRA 10 mg/kg i.p., weekly BLI for 5 weeks
Source text: Hybrid scaffolds consisting of three 2-3 mm biphasic calcium phosphate particles were coated in vitro with human mesenchymal stromal cells (MSCs; 2×10^5 cells/scaffold). After a week of in vitro culture in a osteogenic medium, humanized scaffolds were implanted subcutaneously into RAG2^−/−γc^−/− mice, as described previously (Groen et al., Blood. 19; 120:e9-e16, 2012; de Haart et al., Clin. Cancer Res. 19:5591-5601, 2013).
Eight weeks after implantation, mice received a sublethal irradiation dose (3 Gy, 200 kV, 4 mA) and luciferase-transduced XG1 cells were injected directly into the scaffold (1×10^6 cells/scaffold). […] PBMC-T were prepared by Ficoll-Hypaque density-gradient centrifugation of buffy coats, and subsequent depletion of T cells by CD3-beads using the Easy Sep™-technology ([…] Technologies). Tumor growth was monitored by weekly BLI measurements as described previously (Groen et al., Blood. 19; 120:e9-e16, 2012). All animal experiments were conducted after acquiring permission from the local ethical committee for animal experimentation and were in compliance with the Dutch Animal Experimentation Act. The statistical differences between the different treatment groups in the mice experiments were calculated using a Mann-Whitney test. P-values below 0.05 were considered significant.
Luciferase-transduced XG1 multiple myeloma cells developed into aggressive tumors in immunodeficient RAG2^−/−γc^−/− mice in a humanized bone marrow microenvironment generated by subcutaneous implantation of MSC-coated ceramic scaffolds. […] To follow the outgrowth of the tumor, BLI was performed weekly for 5 weeks.

[2] = system: primary MM cells; assay: Flow cytometry-based ex vivo CDC assay in BM-MNC; type: cell-based, human; conditions: for CDC, median: 10 μg/mL daratumumab, pooled patients
Experimental: (§1) Freshly isolated BM-MNCs, containing 2-57% malignant plasma cells as determined by flow cytometry, were immediately used in ex vivo experiments. […] Pooled human serum (10%) was used as a source of complement. The survival of primary CD138^+ MM cells in the BM-MNCs was determined by flow-cytometry as previously described (van der Veers et al., Haematologica 96:284-290, 2011; van der Veers et al., Blood Cancer J 1:e41, 2011). Surviving MM cells were enumerated by single platform flow-cytometric analysis of CD138^+ cells (with CD138-PE (Beckman Coulter, Miami, Fla., USA)) in the presence of Flow-Count Fluorospheres (Beckman Coulter) to determine absolute numbers of cells.

[3] = system: primary MM cells; assay: Flow cytometry-based ex vivo ADCC assay in BM-MNC; type: cell-based, human; conditions: for ADCC, median: 10 μg/mL daratumumab, pooled patients
Experimental: as §1, with “experiments. […] Sample viability at incubation was more than 98%, as assessed by using ToPro-3 (Invitrogen/Molecular Probes).” for “experiments.”

[4] = system: UM9 cells; assay: BLI-based ADCC assay, UM9; conditions: 10 nM ATRA 48 hours vs solvent control
Experimental: (§5) For MM cell lines, CDC and ADCC were assessed using bioluminescence imaging (BLI) based ADCC and CDC assays as described above. For primary MM cells, CDC and ADCC were assessed using Flow cytometry-based ex vivo ADCC and CDC assays in BM-MNC as described above. […] Isotype control was added at 10 μg/ml, and 10% heat-inactivated serum was used as control for CDC.

[5] = system: MM cell lines XG-1, RPMI8226 and UM9; assay: BLI-based ADCC and CDC assays, ATRA alone; type: cell-based, human; conditions: 10 nM ATRA alone
[6] = system: RPMI8226 cells; assay: BLI-based CDC assay, RPMI8226; type: cell-based, human; conditions: 10 nM ATRA 48 hours
[7] = system: primary MM cells derived from 16 patients; assay: Complement-inhibitory protein expression on primary MM cells by flow cytometry; type: cell-based, human; conditions: 10 nM ATRA, 48 h
Experimental: (§2) Expression of several cell surface proteins was determined by flow cytometric analysis using FITC-, PE-, Per-CP-, or APC-conjugated monoclonal antibodies. Anti-CD38, anti-CD138, and anti-CD56 were purchased from Beckman Coulter; anti-CD3, anti-CD16, anti-CD55, anti-CD59 from BD Biosciences; and anti-CD46 from Biolegend. Flow cytometry was done using a FACS-Calibur device (Becton Dickinson); the data were analyzed using the CellQuest software.
(§3) The effect of ATRA on effector cells was evaluated. […] In the experiments, cells were cultured at 37° C. with RPMI-1640 medium with or without 10 nM ATRA 10 nM for 48 h. Cells were then incubated at 4° C. for 20 min with the appropriate conjugated antibodies panel. Flow cytometric analyses were performed using a FACS-Calibur device (Becton Dickinson); the data were analyzed using the CellQuest software.

[8] = system: XG-1 cells; assay: BLI-based ADCC assay, XG-1; conditions: 10 nM ATRA 48 hours vs solvent control
Experimental: as §5

[9] = system: RPMI8226, L363 and XG-1 cells; assay: Complement-inhibitory protein expression on MM cell lines by flow cytometry; type: cell-based, human; conditions: 0-25 nM ATRA, 48 hour
Experimental: as §2, §3

[10] = system: XG-1 cells; assay: CD38 expression by flow cytometry, XG-1; type: cell-based, human; conditions: ATRA
Experimental: as §2
(§4) Interaction of ATRA with nuclear retinoic acid receptors results in altered expression of target genes including induction of CD38 expression (Malavasi F. J Leukoc Biol 90:217-219, 2011; Drach et al., Cancer Res 54:1746-1752, 1994). Therefore, effect of ATRA on MM cell lines RPMI8226, UM9, and XG1 was studied. MM cells were incubated with RPMI-1640 medium alone or with ATRA ranging from 0-25 nM for 48 hours (FIG. 1A) or were incubated with 10 nM ATRA for 24, 48, 72 or 96 hours (FIG. 1B) and then harvested to determine CD38 expression by flow cytometry using a FACS-Calibur device (Becton Dickinson) and anti-CD38 antibody (Beckman Coulter). The data were analyzed using the CellQuest software.

[11] = system: RPMI8226 cells; assay: BLI-based ADCC assay, RPMI8226; conditions: 10 nM ATRA 48 hours
Experimental: as §5

[12] = system: XG-1 cells; assay: BLI-based CDC assay, XG-1; type: cell-based, human; conditions: 10 nM ATRA 48 hours vs solvent control
[13] = system: MM cell lines RPMI8226, UM9, and XG1; assay: CD38 expression on MM cell lines by flow cytometry (pooled statement); type: cell-based, human
Experimental: as §2, §4

[14] = system: UM9 cells; assay: CD38 expression by flow cytometry, UM9; type: cell-based, human; conditions: ATRA
Experimental: as §2, §4

[15] = system: RPMI8226 cells; assay: CD38 expression by flow cytometry, RPMI8226; type: cell-based, human; conditions: ATRA
Experimental: as §2, §4

[16] = system: PBMCs from healthy donors; human MM cell lines L363-CD38, LME-1, RPMI8226 and UM9; assay: Effect of ATRA on effector cells (PBMC-induced ADCC); type: cell-based; conditions: data not shown
Experimental: as §3

[17] = system: primary MM cells (BM-MNCs from 26 MM patients); assay: Ex vivo ATRA exposure of primary MM cells, surface antigen expression by flow cytometry; type: cell-based, human; conditions: 10 nM ATRA, 48 hours
Experimental: as §2
Ex vivo ATRA exposure (10 nM, 48 hours) of primary MM cells from 26 patients was also studied. In these experiments, BM-MNCs from 26 MM patients were incubated with RPMI-1640 medium alone or with 10 nM ATRA for 48 hours, incubated at 4° C. for 20 min with FITC-conjugated CD38 antibody (Beckman Coulter) and then harvested to determine CD38 expression by flow cytometry. Flow cytometric analyses were performed using a FACS-Calibur device (Becton Dickinson); the data were analyzed using the CellQuest software.

[18] = after 10 nM ATRA pretreatment 48 hours

Question: How did the “tumor progression (BLI)” value [1] turn out when “daratumumab: anti-CD38 antibody, IgG1/κ, VH SEQ ID NO: 4, VL SEQ ID NO: 5, heavy chain SEQ ID NO: 12, light chain SEQ ID NO: 13” was run?
Answer: markedly slowed tumor progression

Question: What about the “CDC, median” value [2, 18] of the same compound?
Answer: 43.9%

Question: And the “CDC, median” value ([2]; without ATRA pretreatment)?
Answer: 16.1%

Question: What about the “ADCC, median” value [3, 18] of the same compound?
Answer: 39.5%

Question: And the “ADCC, median” value ([3]; without ATRA pretreatment)?
Answer: 25.1%

Question: `CC1=C(/C=C/C(C)=C/C=C/C(C)=C/C(=O)O)C(C)(C)CCC1` [ATRA, all-trans retinoic acid] was tested. Which “effect of ATRA on anti-MM effect of daratumumab” value ([1]; daratumumab 8 mg/kg plus ATRA 10 mg/kg plus PBMC-T vs daratumumab plus PBMC-T) did it give?
Answer: significantly enhanced

Question: And the “tumor progression (BLI)” value [1]?
Answer: no effect

Question: And the “effect of ATRA pretreatment on daratumumab-mediated ADCC” value [4]?
Answer: significantly increased

Question: And the “MM cell lysis by ATRA alone” value [5]?
Answer: no MM cell lysis

Question: And the “patients with significant increase in susceptibility to daratumumab-mediated CDC” value ([2]; ATRA pretreatment 48 hours)?
Answer: 13 out of 16

Question: What about the “effect of ATRA on daratumumab-mediated CDC in cells not responsive to daratumumab alone” value ([2]; for example patients 1, 4, 8, 12, 13, 15 and 16) of the same compound?
Answer: induced daratumumab-mediated CDC

Question: What about the “effect of ATRA enhancing daratumumab-mediated CDC in some patient samples” value ([2]; for example patients 6, 7 and 14) of the same compound?
Answer: no additional effect

Question: And the “effect of ATRA pretreatment on daratumumab-mediated CDC” value [6]?
Answer: no significant improvement

Question: What about the CD46 expression levels [7] of the same compound?
Answer: did not significantly affect

Question: What about the “expression of CD59, mean reduction” value ([7]; P=0.0047) of the same compound?
Answer: 37.5%

Question: What about the “expression of CD55, mean reduction” value ([7]; P=0.019) of the same compound?
Answer: 21.3%

Question: And the “effect of ATRA pretreatment on daratumumab-mediated ADCC” value [8]?
Answer: significantly increased

Question: What about the CD46 expression levels [9] of the same compound?
Answer: reduced expression levels

Question: And the CD55 expression levels [9]?
Answer: reduced expression levels

Question: What about the CD59 expression levels [9] of the same compound?
Answer: reduced expression levels

Question: And the “patients with significant increase in susceptibility to daratumumab-mediated ADCC” value ([3]; ATRA pretreatment 48 hours)?
Answer: 8 out of 11

Question: And the “effect of ATRA on daratumumab-mediated ADCC” value ([3]; most primary MM cells tested)?
Answer: induced daratumumab-mediated ADCC

Question: And the “enhanced CD38 expression” value [10]?
Answer: 2.9 fold

Question: And the “effect of ATRA pretreatment on daratumumab-mediated ADCC” value [11]?
Answer: no significant improvement

Question: What about the “effect of ATRA pretreatment on daratumumab-mediated CDC” value [12] of the same compound?
Answer: significantly increased

Question: What about the “increase in CD38 expression” value ([13]; 10 nM ATRA (minimum sufficient), 48 hours, RPMI8226, UM9, XG1) of the same compound?
Answer: 1.9-4.4 fold

Question: And the “time of maximum enhancement of CD38 expression” value ([13]; 10 nM ATRA for 24, 48, 72 or 96 hours)?
Answer: 48 h

Question: What about the “CD38 expression at higher doses of ATRA” value ([13]; doses above 10 nM up to 25 nM, 48 hours) of the same compound?
Answer: did not further enhance

Question: And the “enhanced CD38 expression” value [14]?
Answer: 4.4 fold

Question: What about the “upregulation of CD38 expression” value [15] of the same compound?
Answer: 1.9 fold

Question: What about the “effect on ability of PBMCs to induce ADCC” value [16] of the same compound?
Answer: no effect or minimal effect

Question: And the “CD138 expression levels, median increase” value [17]?
Answer: 2.0 fold

Question: What about the “expression of CD56” value [17] of the same compound?
Answer: no significant changes

Question: What about the “expression of HLA A/B/C” value [17] of the same compound?
Answer: no significant changes

Question: And the “CD38 expression increase, range” value ([17]; 26 patients)?
Answer: 1.0-26.5 fold

Question: What about the “CD38 expression, median increase” value ([17]; 26 patients) of the same compound?
Answer: 1.7 fold
